Measurements reported in patent publication US7723564B2, “Compositions and methods for modulation of KSR1 and KSR2 interactions” (Board of Regents of the University of Nebraska, priority 2006, dated 2010).

How the values were obtained:
AMPK-KSR1 interaction = assay: Coimmunoprecipitation of AMPK with KSR1; type: cell-based; conditions: AMPK expressed in cells with KSR1; FIG. 22
Text: (§1) FIG. 22. is a series of western blots showing that AMPK coimmunopreciptates with KSR1 and KSR2.
(§2) AMP activated protein kinase (AMPK) is a critical regulator of catabolism in cells, promoting the synthesis of ATP and inhibiting the anabolic effects of other hormones to promote […]. AMPK is an indirect target of the widely prescribed anti-diabetic drug metformin. […] When AMPK is expressed in cells with either KSR or KSR2, AMPK is found to precipitate with either protein. AMPK is not precipitated in the absence of KSR proteins.

AMPK-KSR2 interaction = assay: Coimmunoprecipitation of AMPK with KSR2; type: cell-based; conditions: AMPK expressed in cells with KSR2; FIG. 22
Text: as §1, §2

CC[C@H]1/C=C/C=C/C[C@@H](C)[C@H](O)[C@@](C)(O)C(=O)[C@@H](C)[C@H](O)[C@@H](C)C(=O)[C@@H](C)[C@H](O)[C@@H](C)/C=C/C(=O)O[C@@H]2[C@H](C)[C@H](CC1)O[C@]1(CC[C@H](C)[C@H](C[C@@H](C)O)O1)[C@H]2C [oligomycin]
Effect on interaction of AMPK with KSR1 (AMPK-KSR1 interaction): does not alter | Effect on interaction of AMPK with KSR2 (AMPK-KSR2 interaction): does not alter
